Assay results taken from the NIST ThermoML archive (doi:10.1016/j.fluid.2004.09.013).

Conditions: for mass density: Fluid (supercritical or subcritical phases), Vibrating tube method

C/C=C\C [(Z)-2-butene]
Conditions | Critical density [kg/m3] | mass density [kg/m3]
453.24 K, 29992 kPa | – | 504.64
453.24 K, 34997 kPa | – | 516.94
453.24 K, 39986 kPa | – | 527.56
458.24 K, 5019 kPa | – | 150.54
458.24 K, 9982 kPa | – | 395.53
458.24 K, 14988 kPa | – | 439.55
458.24 K, 20006 kPa | – | 465.63
458.24 K, 24985 kPa | – | 484.52
458.24 K, 30000 kPa | – | 499.71
458.24 K, 34991 kPa | – | 512.34
458.24 K, 39989 kPa | – | 523.28
463.23 K, 39987 kPa | – | 519.02
463.24 K, 5019 kPa | – | 137.08
463.24 K, 9986 kPa | – | 383.54
463.24 K, 14987 kPa | – | 431.68
463.24 K, 20001 kPa | – | 459.21
463.24 K, 24986 kPa | – | 479.01
463.24 K, 29986 kPa | – | 494.71
463.24 K, 34995 kPa | – | 507.77
468.24 K, 5018 kPa | – | 127.59
468.24 K, 10000 kPa | – | 371.16
468.24 K, 14996 kPa | – | 423.86
468.24 K, 20007 kPa | – | 452.9
468.24 K, 24993 kPa | – | 473.52
468.24 K, 29993 kPa | – | 489.76
468.24 K, 34996 kPa | – | 503.22
468.24 K, 40007 kPa | – | 514.77
473.23 K, 5018 kPa | – | 120.28
473.24 K, 9991 kPa | – | 357.88
473.24 K, 14997 kPa | – | 415.28
473.24 K, 20004 kPa | – | 446.42
473.24 K, 25004 kPa | – | 467.94
473.24 K, 30000 kPa | – | 484.78
473.24 K, 34996 kPa | – | 498.62
473.24 K, 39991 kPa | – | 510.47
478.23 K, 14995 kPa | – | 407.2
478.23 K, 19994 kPa | – | 439.87
478.23 K, 25001 kPa | – | 462.4
478.23 K, 35013 kPa | – | 494.09
478.23 K, 39992 kPa | – | 506.21
478.24 K, 5015 kPa | – | 114.19
478.24 K, 9987 kPa | – | 344.22
478.24 K, 29999 kPa | – | 479.77
483.23 K, 5018 kPa | – | 109.23
483.23 K, 19992 kPa | – | 433.21
483.24 K, 10014 kPa | – | 330.62
483.24 K, 14991 kPa | – | 398.7
483.24 K, 25005 kPa | – | 456.72
483.24 K, 29995 kPa | – | 474.68
483.24 K, 34999 kPa | – | 489.39
483.24 K, 39992 kPa | – | 501.87
488.23 K, 5019 kPa | – | 104.99
488.23 K, 19987 kPa | – | 426.61
488.23 K, 25005 kPa | – | 451.11
488.23 K, 29989 kPa | – | 469.66
488.23 K, 34990 kPa | – | 484.81
488.23 K, 39992 kPa | – | 497.63
488.24 K, 10014 kPa | – | 316.46
488.24 K, 15002 kPa | – | 390.34
493.23 K, 5016 kPa | – | 101.23
493.23 K, 9986 kPa | – | 301.65
493.23 K, 14996 kPa | – | 381.74
493.23 K, 19990 kPa | – | 420.02
493.23 K, 24987 kPa | – | 445.42
493.23 K, 29998 kPa | – | 464.71
493.23 K, 35003 kPa | – | 480.29
493.23 K, 40013 kPa | – | 493.44
498.23 K, 5018 kPa | – | 97.97
498.23 K, 9985 kPa | – | 287.72
498.23 K, 14994 kPa | – | 373.12
498.23 K, 19993 kPa | – | 413.38
498.23 K, 24997 kPa | – | 439.84
498.23 K, 29994 kPa | – | 459.71
498.23 K, 35006 kPa | – | 475.76
498.23 K, 40006 kPa | – | 489.2
503.23 K, 5019 kPa | – | 95.03
503.23 K, 10004 kPa | – | 274.87
503.23 K, 14996 kPa | – | 364.53
503.23 K, 20003 kPa | – | 406.9
503.23 K, 24990 kPa | – | 434.25
503.23 K, 29984 kPa | – | 454.72
503.23 K, 34985 kPa | – | 471.2
503.23 K, 39993 kPa | – | 485.02
508.23 K, 5019 kPa | – | 92.41
508.23 K, 9990 kPa | – | 262
508.23 K, 15002 kPa | – | 356.04
508.23 K, 19984 kPa | – | 400.28
508.23 K, 25008 kPa | – | 428.76
508.23 K, 29983 kPa | – | 449.83
508.23 K, 35004 kPa | – | 466.79
508.23 K, 40004 kPa | – | 480.91
513.23 K, 5014 kPa | – | 89.94
513.23 K, 9984 kPa | – | 250.08
513.23 K, 14990 kPa | – | 347.39
513.23 K, 19997 kPa | – | 393.83
513.23 K, 25007 kPa | – | 423.21
513.23 K, 29985 kPa | – | 444.89
513.23 K, 35002 kPa | – | 462.3
513.23 K, 40010 kPa | – | 476.76
518.22 K, 5019 kPa | – | 87.78
518.22 K, 14988 kPa | – | 338.79
518.22 K, 25002 kPa | – | 417.6
518.22 K, 30005 kPa | – | 440.02
518.22 K, 39988 kPa | – | 472.55
518.23 K, 9996 kPa | – | 239.51
518.23 K, 20004 kPa | – | 386.86
518.23 K, 34991 kPa | – | 457.76
523.22 K, 5019 kPa | – | 85.68
523.22 K, 9990 kPa | – | 229.24
523.22 K, 14985 kPa | – | 330.32
523.22 K, 25011 kPa | – | 412.04
523.22 K, 29990 kPa | – | 435.04
523.22 K, 34984 kPa | – | 453.26
523.22 K, 40013 kPa | – | 468.46
523.23 K, 20001 kPa | – | 380.33
Liquid, visual observation in a variable volume cell:FP | 238.12 | –

Liquid
Conditions | Critical pressure [kPa] | Critical temperature [K]
– | 4225.5 | 435.75
